Values quoted from earlier work as cited in US10913844B2, “Plasticized thermoset resin, and associated cured resin, method of curing, and article comprising cured resin” (The University of Massachusetts, priority 2016, dated 2021).

Conditions: solvent furfural

Q: With `C1N2CN3CN1CN(C2)C3` [HMTA, hexamethylenetetramine] as the molecule, how does the “solubility of HMTA in furfural” value read?
A: The value was “less than two”.
